From PMC5711494, “Sterol methyltransferase a target for anti-amoeba therapy: towards transition state analog and suicide substrate drug design” (Journal of Lipid Research, 2017)

Legend:
[1] = target: Ac28-SMT (sterol 28-methyltransferase, SMT2) (Acanthamoeba castellanii, UniProt L8GKC5); test: Inhibition of recombinant Ac28-SMT assayed with native substrate 24(28)-methylene lophenol and [methyl-3H3]SAM; type: biochemical
Procedure: The SMT constructs were transformed into competent BL21(DE3) cells and transformants selected against 100 µg/ml ampicillin. Expression of the SMT constructs and partial purification of the recombinant proteins followed the procedure described previously ([19]). Briefly, a single colony for 24-SMT and 28-SMT were grown overnight in an orbital shaker (250–300 rpm) at 37°C in Luria broth containing ampicillin and then reinoculated in fresh medium at 1 in 10 dilution. […] In one tube, cells were induced by addition of isopropyl thio-galactoside at a final concentration of 1 mM and in the other tube, were un-induced. Cells were harvested 2 and 4 h after induction and an equal number of cells (as calculated by OD @600 nm) from induced (+) and un-induced (−) cultures were boiled with 1X Laemmli’s buffer and analyzed by SDS-PAGE (12%). […] Total protein concentrations were determined by Bradford dye-binding procedure with bovine γ-globulin as standard. […] Incubation mixtures were saponified with methanolic potassium hydroxide and extracted with hexane (3 × 1 ml) and concentrated to dryness providing the nonsaponifiable lipid fraction; radioactivity was determined by liquid scintillation counting. […] Controls containing radioactive SAM and no sterol used to background subtract radioactivity in these treatments was less than 500 dpm. […]

[2] = tested on: Acanthamoeba castellanii trophozoites (strain ATCC 30010); test: Ac trophozoite growth inhibition and minimum amoebicidal concentration (trypan blue exclusion); type: cell-based; conditions: 48 h incubation
Procedure: Ac strain ATCC 30010 was inoculated (1 × 10^4 cells/ml) into tissue culture T-25 ml flasks, prepared with ATTC media 712 and cultured axenically in 5 ml medium at 25°C. Continuous cultures populated by trophozoites ([…]; the remaining cells were cysts) was maintained by sub-culturing 4–5 day growth arrested cells (1 × 10^6 cells/ml) into fresh medium. Steroidal inhibitor and azole susceptibility assays were performed in 24-well (4 × 6) microtiter plates (3 ml total). Trophozoite assay conditions and preparation of stock solutions made to 1 μg/10 μl and 1 μg/100 μl in DMSO through serial dilution to achieve final inhibitor concentrations of 64, 32, 16, 8, 4, 2, 1, 0.5, 0.25, 0.125, 0.0625, and 0.03125 µg/ml in 1% DMSO as reported previously for voriconazole incubated with Ac ([25]). Growth curves to evaluate treated trophozoites were initiated with 1 × 10^6 cells/ml and incubated for 48 h. Cell number was calculated with the use of a hemocytometer. The percentage of viable trophozoites following exposure to different concentrations of inhibitors was determined by the standard trypan blue exclusion method. Cells stained blue were considered nonviable. […] The IC50 of inhibitors against trophozoite growth was evaluated using GraphPad Prism with default setting (GraphPad Software Inc., CA).

Ac24-SMT = test: Substrate kinetics and product analysis with recombinant Ac24-SMT; type: biochemical, Acanthamoeba castellanii
Procedure: The SMT constructs were transformed into competent BL21(DE3) cells and transformants selected against 100 µg/ml ampicillin. Expression of the SMT constructs and partial purification of the recombinant proteins followed the procedure described previously ([19]). […] In one tube, cells were induced by addition of isopropyl thio-galactoside at a final concentration of 1 mM and in the other tube, were un-induced. Cells were harvested 2 and 4 h after induction and an equal number of cells (as calculated by OD @600 nm) from induced (+) and un-induced (−) cultures were boiled with 1X Laemmli’s buffer and analyzed by SDS-PAGE (12%). Gel was stained with Coomassie Brilliant Blue (0.2%) to establish the molecular weight and purity of the expressed protein. Total protein concentrations were determined by Bradford dye-binding procedure with bovine γ-globulin as standard. To determine the catalytic activity of the recombinant proteins, enzyme assays were carried out using soluble bacterial extract (100,000 g fraction) in 9 ml test tubes containing a total of 600 µl assay volume for 45 min (initial velocity conditions). The assay buffer contained 20 mM phosphate buffer in 5% (v/v) glycerol at pH 7.5, sterol acceptor emulsified in 12 µl Tween 80 (1.2 g/l), and the substrate tested over the concentration range 5 to 150 µM against 1.2 mg of total protein. The reaction was initiated by the addition of saturating levels of [methyl-^3H3]SAM, 0.9 µCi, at 150 µM. Incubation mixtures were saponified with methanolic potassium hydroxide and extracted with hexane (3 × 1 ml) and concentrated to dryness providing the nonsaponifiable lipid fraction; radioactivity was determined by liquid scintillation counting. […]

Ac28-SMT (sterol 28-methyltransferase, SMT2), sequence (L8GKC5 entry or part of it): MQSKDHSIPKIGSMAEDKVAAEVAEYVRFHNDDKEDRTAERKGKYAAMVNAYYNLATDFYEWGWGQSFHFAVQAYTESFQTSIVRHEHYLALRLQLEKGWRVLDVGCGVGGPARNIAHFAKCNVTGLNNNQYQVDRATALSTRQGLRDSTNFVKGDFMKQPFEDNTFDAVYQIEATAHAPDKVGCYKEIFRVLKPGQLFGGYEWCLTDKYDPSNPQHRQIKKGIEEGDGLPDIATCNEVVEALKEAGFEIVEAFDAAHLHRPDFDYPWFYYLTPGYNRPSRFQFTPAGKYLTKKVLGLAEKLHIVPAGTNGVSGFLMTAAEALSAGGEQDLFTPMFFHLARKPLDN

SMILES: CC(CCC=C1CC1)C1CC[C@@]2(C)C3=C(CCC12C)C1(C)CCC(O)C(C)(C)C1CC3 (some centres unmarked) [DHL, 26,27-dehydrolanosterol]
- kinact/Ki against 28-SMT [1]: effectively zero
- Ki ([1]; read-out: Ki against 28-SMT (competitive inhibitor), assayed with natural substrate): 54 µM
- MAC (complete inhibition of growth, minimum amoebicidal concentration) [2]: 15 µM
- IC50 ([2]; Acanthamoeba castellanii, ATCC30010, Ac trophozoites): 6 µM
- difference in catalytic competence (kcat/Km) from the natural substrate of 24-SMT (Ac24-SMT): greater than 10 fold
- conversion by Ac24-SMT to product P1 (C26-monol) (Ac24-SMT; GC/MS, saturating cosubstrates): 3%
- conversion by Ac24-SMT to product P2 (C26-diol) (Ac24-SMT; GC/MS, saturating cosubstrates): 1%
- Km (Michaelis / binding constant) as substrate of Ac24-SMT (Ac24-SMT; saturating SAM 150 µM, initial velocity conditions): ~33 µM
